According to publication PMC11274987, “Synthesis of Chiral Acyclic Pyrimidine Nucleoside Analogues from DHAP-Dependent Aldolases” (Biomolecules, 2024):

Legend:
[1] = molecular target: T1, TmRhu-1PA (Thermotoga maritima, UniProt Q9X0G1); assay: aldol addition, HPLC and NMR of products; format: biochemical; conditions: acceptor; co-substrate DHAP; 20 mM phosphate pH 6.8, 45 °C
T1 construct: gene TM_1072; recombinant, cloned, expressed and purified as in earlier work (heat step at 80 °C, cobalt salts present)
T1 sequence (Q9X0G1 1-236): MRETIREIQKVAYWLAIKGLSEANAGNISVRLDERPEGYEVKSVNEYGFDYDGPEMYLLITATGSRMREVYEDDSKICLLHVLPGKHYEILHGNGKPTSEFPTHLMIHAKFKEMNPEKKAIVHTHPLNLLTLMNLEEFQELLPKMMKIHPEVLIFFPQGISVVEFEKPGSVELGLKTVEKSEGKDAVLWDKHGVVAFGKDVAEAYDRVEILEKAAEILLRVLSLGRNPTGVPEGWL

[2] = molecular target: T2, RAMA (Oryctolagus cuniculus, UniProt P00883); assay: aldol addition, HPLC and NMR of products; format: biochemical; conditions: acceptor; co-substrate DHAP; 20 mM phosphate pH 6.8, 30 °C
T2 construct: gene ALDOA; commercial native enzyme from rabbit muscle (Sigma-Aldrich)
T2 sequence (P00883 2-364): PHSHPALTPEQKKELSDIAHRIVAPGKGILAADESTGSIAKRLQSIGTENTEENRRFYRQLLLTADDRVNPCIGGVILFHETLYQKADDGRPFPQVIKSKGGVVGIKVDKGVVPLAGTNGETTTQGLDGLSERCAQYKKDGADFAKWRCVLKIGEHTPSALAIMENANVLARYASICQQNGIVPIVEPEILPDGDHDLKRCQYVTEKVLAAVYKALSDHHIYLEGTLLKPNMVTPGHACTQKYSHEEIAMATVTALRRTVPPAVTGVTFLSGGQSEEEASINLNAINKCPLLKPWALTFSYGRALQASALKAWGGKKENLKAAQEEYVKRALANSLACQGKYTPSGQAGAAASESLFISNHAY

| SMILES | aldol addition, HPLC and NMR of products [1] | aldol addition, HPLC and NMR of products [2] |
| --- | --- | --- |
| Cc1cn(CC=O)c(=O)[nH]c1=O [1a, thyminyl acetaldehyde] | biotransformation with the thymine derivative (1a) and TmRhu-1PA as a biocatalyst |  |
| Nc1ccn(CC=O)c(=O)n1 [1b, cytosyl acetaldehyde] |  | A similar reaction profile was observed when the cytosine derivative |
